Results from ChEMBL document CHEMBL1697781, “Assessment of the health effects of chemicals in humans: II. Construction of an adverse effects database for QSAR modeling” (Curr Drug Discov Technol, 2004).

Each compound was assayed on Hepatotoxicity (assay: FDA HLAED, gamma-glutamyl transferase (GGT) increase). Conditions: human.
For GGT Increase - Index Value in this document: reference of the scale not given here.
For LDH Increase - Index Value in this document: reference of the scale not given here.

SMILES	GGT Increase - Activity Score	GGT Increase - Index Value	GGT Increase - Number of Reports
CC(=O)N1CCN(c2ccc(OCC3COC(Cn4ccnc4)(c4ccc(Cl)cc4Cl)O3)cc2)CC1 (configuration not stated) [KETOCONAZOLE]	Inactive	0	< 4
CC(C(=O)O)c1cccc(C(=O)c2ccccc2)c1 (configuration not stated) [KETOPROFEN]	Inactive	0	< 4
O=C(c1ccccc1)c1ccc2n1CCC2C(=O)O (configuration not stated) [KETOROLAC]	Inactive	0.5	< 4
CC(CCc1ccccc1)NCC(O)c1ccc(O)c(C(N)=O)c1 (configuration not stated) [LABETALOL]	Inactive	0	< 4
Nc1ccn([C@@H]2CS[C@H](CO)O2)c(=O)n1 [LAMIVUDINE]	Inactive	1.7	>= 4
Nc1nnc(-c2cccc(Cl)c2Cl)c(N)n1 [LAMOTRIGINE]	Inactive	2	< 4
Cc1c(OCC(F)(F)F)ccnc1C[S+]([O-])c1nc2ccccc2[nH]1 (configuration not stated) [LANSOPRAZOLE]	Inactive	1.1	>= 4
CC(C)OC(=O)CCC/C=C\C[C@@H]1[C@@H](CC[C@@H](O)CCc2ccccc2)[C@H](O)C[C@@H]1O [LATANOPROST]	Inactive	0	< 4
c1ccc([C@H]2CN3CCSC3=N2)cc1 [LEVAMISOLE]	Inactive	5.9	< 4

Each compound was assayed on Hepatotoxicity (assay: FDA HLAED, alkaline phosphatase increase). Conditions: human.

SMILES	Alkaline Phosphatase Increase - Activity Score	Alkaline Phosphatase Increase - Index Value	Alkaline Phosphatase Increase - Number of Reports
CC(=O)N1CCN(c2ccc(OCC3COC(Cn4ccnc4)(c4ccc(Cl)cc4Cl)O3)cc2)CC1 (configuration not stated) [KETOCONAZOLE]	Active	5.4	>= 4
CC(C(=O)O)c1cccc(C(=O)c2ccccc2)c1 (configuration not stated) [KETOPROFEN]	Inactive	0.6	< 4
O=C(c1ccccc1)c1ccc2n1CCC2C(=O)O (configuration not stated) [KETOROLAC]	Inactive	1.4	>= 4
CC(CCc1ccccc1)NCC(O)c1ccc(O)c(C(N)=O)c1 (configuration not stated) [LABETALOL]	Inactive	0.9	>= 4
Nc1ccn([C@@H]2CS[C@H](CO)O2)c(=O)n1 [LAMIVUDINE]	Inactive	2.1	>= 4
Nc1nnc(-c2cccc(Cl)c2Cl)c(N)n1 [LAMOTRIGINE]	Inactive	0.5	< 4
Cc1c(OCC(F)(F)F)ccnc1C[S+]([O-])c1nc2ccccc2[nH]1 (configuration not stated) [LANSOPRAZOLE]	Inactive	0.5	< 4
CC(C)OC(=O)CCC/C=C\C[C@@H]1[C@@H](CC[C@@H](O)CCc2ccccc2)[C@H](O)C[C@@H]1O [LATANOPROST]	Inactive	0.2	< 4
c1ccc([C@H]2CN3CCSC3=N2)cc1 [LEVAMISOLE]	Active	38.3	>= 4

The compounds below were run on Hepatotoxicity (assay: FDA HLAED, lactate dehydrogenase (LDH) increase). Conditions: human.

SMILES	LDH Increase - Activity Score	LDH Increase - Index Value	LDH Increase - Number of Reports
CC(=O)N1CCN(c2ccc(OCC3COC(Cn4ccnc4)(c4ccc(Cl)cc4Cl)O3)cc2)CC1 (configuration not stated) [KETOCONAZOLE]	Inactive	2.7	< 4
CC(C(=O)O)c1cccc(C(=O)c2ccccc2)c1 (configuration not stated) [KETOPROFEN]	Inactive	0.4	< 4
O=C(c1ccccc1)c1ccc2n1CCC2C(=O)O (configuration not stated) [KETOROLAC]	Inactive	0.5	>= 4
CC(CCc1ccccc1)NCC(O)c1ccc(O)c(C(N)=O)c1 (configuration not stated) [LABETALOL]	Inactive	0.4	< 4
Nc1ccn([C@@H]2CS[C@H](CO)O2)c(=O)n1 [LAMIVUDINE]	Inactive	2.1	>= 4
Nc1nnc(-c2cccc(Cl)c2Cl)c(N)n1 [LAMOTRIGINE]	Marginally Active	3	>= 4
Cc1c(OCC(F)(F)F)ccnc1C[S+]([O-])c1nc2ccccc2[nH]1 (configuration not stated) [LANSOPRAZOLE]	Inactive	0.5	< 4
CC(C)OC(=O)CCC/C=C\C[C@@H]1[C@@H](CC[C@@H](O)CCc2ccccc2)[C@H](O)C[C@@H]1O [LATANOPROST]	Inactive	0	< 4
c1ccc([C@H]2CN3CCSC3=N2)cc1 [LEVAMISOLE]	Active	29.4	>= 4

What follows are compounds tested on Hepatotoxicity (assay: FDA HLAED, serum glutamic oxaloacetic transaminase (SGOT) increase). Conditions: human.

SMILES	SGOT Increase - Activity Score	SGOT Increase - Index Value	SGOT Increase - Number of Reports
CC(=O)N1CCN(c2ccc(OCC3COC(Cn4ccnc4)(c4ccc(Cl)cc4Cl)O3)cc2)CC1 (configuration not stated) [KETOCONAZOLE]	Active	14.7	>= 4
CC(C(=O)O)c1cccc(C(=O)c2ccccc2)c1 (configuration not stated) [KETOPROFEN]	Inactive	0.6	< 4
O=C(c1ccccc1)c1ccc2n1CCC2C(=O)O (configuration not stated) [KETOROLAC]	Inactive	0.9	>= 4
CC(CCc1ccccc1)NCC(O)c1ccc(O)c(C(N)=O)c1 (configuration not stated) [LABETALOL]	Marginally Active	3	>= 4
Nc1ccn([C@@H]2CS[C@H](CO)O2)c(=O)n1 [LAMIVUDINE]	Active	8.7	>= 4
Nc1nnc(-c2cccc(Cl)c2Cl)c(N)n1 [LAMOTRIGINE]	Active	4	>= 4
Cc1c(OCC(F)(F)F)ccnc1C[S+]([O-])c1nc2ccccc2[nH]1 (configuration not stated) [LANSOPRAZOLE]	Inactive	0.9	>= 4
CC(C)OC(=O)CCC/C=C\C[C@@H]1[C@@H](CC[C@@H](O)CCc2ccccc2)[C@H](O)C[C@@H]1O [LATANOPROST]	Inactive	0.2	< 4
c1ccc([C@H]2CN3CCSC3=N2)cc1 [LEVAMISOLE]	Active	26.5	>= 4

What follows are compounds tested on Hepatotoxicity (assay: FDA HLAED, serum glutamic pyruvic transaminase (SGPT) increase). Conditions: human.

SMILES	SGPT Increase - Activity Score	SGPT Increase - Index Value	SGPT Increase - Number of Reports
CC(=O)N1CCN(c2ccc(OCC3COC(Cn4ccnc4)(c4ccc(Cl)cc4Cl)O3)cc2)CC1 (configuration not stated) [KETOCONAZOLE]	Active	10.7	>= 4
CC(C(=O)O)c1cccc(C(=O)c2ccccc2)c1 (configuration not stated) [KETOPROFEN]	Inactive	0.4	< 4
O=C(c1ccccc1)c1ccc2n1CCC2C(=O)O (configuration not stated) [KETOROLAC]	Inactive	0.6	>= 4
CC(CCc1ccccc1)NCC(O)c1ccc(O)c(C(N)=O)c1 (configuration not stated) [LABETALOL]	Inactive	1.1	>= 4
Nc1ccn([C@@H]2CS[C@H](CO)O2)c(=O)n1 [LAMIVUDINE]	Active	9	>= 4
Nc1nnc(-c2cccc(Cl)c2Cl)c(N)n1 [LAMOTRIGINE]	Active	4	>= 4
Cc1c(OCC(F)(F)F)ccnc1C[S+]([O-])c1nc2ccccc2[nH]1 (configuration not stated) [LANSOPRAZOLE]	Inactive	1.2	>= 4
CC(C)OC(=O)CCC/C=C\C[C@@H]1[C@@H](CC[C@@H](O)CCc2ccccc2)[C@H](O)C[C@@H]1O [LATANOPROST]	Inactive	0	< 4
c1ccc([C@H]2CN3CCSC3=N2)cc1 [LEVAMISOLE]	Inactive	8.8	< 4

Each compound was assayed on Hepatotoxicity (assay: FDA HLAED, liver enzyme composite activity). Conditions: human.

SMILES	Composite Activity - Active	Composite Activity - Marginal	Composite Activity - Score
CC(=O)N1CCN(c2ccc(OCC3COC(Cn4ccnc4)(c4ccc(Cl)cc4Cl)O3)cc2)CC1 (configuration not stated) [KETOCONAZOLE]	3	0	Active
CC(C(=O)O)c1cccc(C(=O)c2ccccc2)c1 (configuration not stated) [KETOPROFEN]	0	0	Inactive
O=C(c1ccccc1)c1ccc2n1CCC2C(=O)O (configuration not stated) [KETOROLAC]	0	0	Inactive
CC(CCc1ccccc1)NCC(O)c1ccc(O)c(C(N)=O)c1 (configuration not stated) [LABETALOL]	0	1	Inactive
Nc1ccn([C@@H]2CS[C@H](CO)O2)c(=O)n1 [LAMIVUDINE]	2	0	Active
Nc1nnc(-c2cccc(Cl)c2Cl)c(N)n1 [LAMOTRIGINE]	2	1	Active
Cc1c(OCC(F)(F)F)ccnc1C[S+]([O-])c1nc2ccccc2[nH]1 (configuration not stated) [LANSOPRAZOLE]	0	0	Inactive
CC(C)OC(=O)CCC/C=C\C[C@@H]1[C@@H](CC[C@@H](O)CCc2ccccc2)[C@H](O)C[C@@H]1O [LATANOPROST]	0	0	Inactive

Same assay, conditions: human, Liver

SMILES	Composite Activity - Active	Composite Activity - Marginal	Composite Activity - Score
c1ccc([C@H]2CN3CCSC3=N2)cc1 [LEVAMISOLE]	3	0	Active
